This note sets out measurements from patent US11485762B2, “Compositions and methods for inhibition of L-plastin activity in osteoclasts to reduce bone loss” (University of Maryland, Baltimore, priority 2017, dated 2022).

The subject of assay [1] is endogenous LPL. Briefly: Phosphorylation of endogenous (cellular) LPL in osteoclasts (LPL immunoprecipitation, p-Serine immunoblot). It is filed as cell-based, mouse. Particulars: sNT-LPL peptides, 3-4 hours, bone particles and TNF-α. The procedure: Bone particles (60-80 μm in size) were prepared as described previously (Ma et at, 2010, J. Biol. Chem., 285: 29911-29924). After flushing the marrow cells for osteoclast differentiation as described above, long bones of mice (free of cells inside and muscles outside) were washed extensively with PBS and kept in ethanol until use. Long bones were air-dried in the hood and homogenized by a mini blender. Bone particles were sieved and used for experiments. Multinucleated osteoclasts were seen from day four onward. At this time cultures were added with bone particles (100 μg/ml media) for 3-4 hours or 12-14 hours in the presence of TNF-α (20 ng/ml). Some cultures were treated with 3-5 μg/ml TNFR1 antibody. Osteoclasts were preincubated with the TNFR1 antibody for 60-90 minutes before the addition of TNF-α to enhance the blocking effect. Osteoclasts incubated with bone particles for 3-4 or 12-14 hours in the presence of TNF-α were used for lysate preparations.
The vector pTAT-HA has an N-terminal 6-histidine leader (Nagahara et al., 1998, Nature Medicine, 4:1449-1452). […] For transduction with TAT-fused peptides (100-150 nM), osteoclasts were first kept in serum-free α-MEM for two hours. Afterward, TAT proteins of interest, bone particles, and TNF-α were added to cells in serum-free α-MEM Lysates were made from these cells for immunoprecipitation and immunoblotting analyses. Osteoclasts plated on dentine slices in the presence of TAT-proteins of interest and TNF-α for 3-6 hours or 12-14 hours were used for immunostaining or actin staining analyses. Osteoclast cultures treated only with TNF-α were used as controls.
Following various treatments, osteoclasts were washed three-times with cold PBS and lysed in a radioimmune precipitation buffer (RIPA; 10 mM Tris-HCl, pH 7.2, 150 mM NaCl, 1% deoxycholate, 1% Triton X-100, 0.1% SDS, 1% aprotinin, 2 mM PMSF, […], and 1% aprotinin). Cells were rocked on ice for 15 minutes and scraped off with a cell scraper. Cell lysates were centrifuged at 15,000 rpm for 5 minutes at 4° C., and the supernatant was saved. Protein contents were measured using Bio-Rad protein assay reagent. Equal amounts of lysate proteins (100-150 μg) were used for immunoprecipitations. Immunoprecipitations and Western blotting were done as described previously (Chellaiah et al., 1998, J. Biol. Chem., 273: 11908-11916; Chellaiah et al., 1996, Mol. Biol. Cell, 7: 743-753).
After cells were kept in the serum-free α-MEM medium for two hours, LPL peptides of interest were added to a final concentration of 100-150 nM to cells in serum-free media (Chellaiah et al, 2000, J. Biol. Chem., 275: 11993-12002). Osteoclasts transduced with peptides of interest and added with bone particles in the presence of TNF-α for 3-4 hours or 12-14 hours were used for lysate preparations. Cells plated on coverslips and treated with peptides were used for actin staining to detect podosomes. After transduction for 30 min., osteoclasts were re-plated on dentine slices with respective LPL peptide and TNF-α for 3-6 hours or 12-14 hours. These cells were used for Actin staining with rhodamine-phalloidin or immunostaining analyses (Chellaiah et al., 2000, J. Biol. Chem., 275: 11993-12002; Chellaiah et al., 2000, J. Cell. Biol., 148: 665-678; Chellaiah et al., 2003, J Biol Chem 278: 29086-29097).
Following various treatments, osteoclasts were washed three times with cold PBS and lysed in a Triton-containing lysis buffer as described (Chellaiah et al., 1996, Mol. Biol. Cell, 7: 743-753). Cells were rocked on ice for 15 minutes, and scraped off with a cell scraper. Cell lysates were centrifuged at 15,000 rpm for 5 minutes, at 4° C., and the supernatant was saved. Protein contents were measured using Bio-Rad protein assay reagent. Osteoclast cultures were also subjected to a trypan blue dye (Sigma T8154) exclusion test to determine the viability of osteoclasts after various treatments. […]
In general terms: In western blotting, separated proteins are transferred to a membrane and probed.

For assay [2], the system named is osteoclasts. As to the kind of experiment: F-actin content by rhodamine phalloidin binding. It is filed as cell-based, mouse. Conditions: sNT-LPL peptides; compared with P2, P5, and P6. How it is done:
For the measurement of F-actin, osteoclasts transduced with TAT-LPL peptides of interest for 15 to 30 minutes were re-plated on dentine slices for 3 to 4 hours or 10-12 hours, respectively, in the presence of indicated TAT-fused peptides of interest and TNF-α. For each treatment four to six wells in 24 well, culture dishes were used. Cells were fixed and rhodamine phalloidin binding to F-actin was done as described (Chellaiah et al., 2000, J. Cell Biol., 148: 665-678; Chellaiah et al., 2000, J. Biol. Chem., 275: 11993-12002: Chellaiah et at, 2007, J. Biol. Chem., 282: 10104-10116),
Osteoclasts were transduced with LPL and control peptides. For each treatment four to six wells in 24 well culture dishes were used. Cells were fixed and rhodamine phalloidin binding to F-actin was done as described (Chellaiah et al., 1998, J. Biol. Chem., 273: 11908-11916; Chellaiah et al., 1996, Mol. Biol. Cell, 7: 743-753).

As for “MARGAVSDEE [Peptide P3, TAT-fused sNT-LPL peptide, Ser-5 substituted with Ala (A5S7)]”, in assay [1], the “inhibitory effect on the phosphorylation of cellular LPL” value is listed as “varied inhibitory effects”. In addition, in assay [2], the F-actin level entry was “decreased”.
The corresponding values for “MARGSVADEE [Peptide P4, TAT-fused sNT-LPL peptide, Ser-7 substituted with Ala (S5A7)]” are “varied inhibitory effects” and “decreased”.
